Literature values as cited in patent publication US8426587B2, “Haloallylamine inhibitors of SSAO/VAP-1 and uses therefor” (Pharmaxis Ltd., priority 2007, dated 2013).

Target: T1, rat SSAO/VAP-1 (Rattus norvegicus, UniProt O08590)
T1 sequence (O08590 1-763): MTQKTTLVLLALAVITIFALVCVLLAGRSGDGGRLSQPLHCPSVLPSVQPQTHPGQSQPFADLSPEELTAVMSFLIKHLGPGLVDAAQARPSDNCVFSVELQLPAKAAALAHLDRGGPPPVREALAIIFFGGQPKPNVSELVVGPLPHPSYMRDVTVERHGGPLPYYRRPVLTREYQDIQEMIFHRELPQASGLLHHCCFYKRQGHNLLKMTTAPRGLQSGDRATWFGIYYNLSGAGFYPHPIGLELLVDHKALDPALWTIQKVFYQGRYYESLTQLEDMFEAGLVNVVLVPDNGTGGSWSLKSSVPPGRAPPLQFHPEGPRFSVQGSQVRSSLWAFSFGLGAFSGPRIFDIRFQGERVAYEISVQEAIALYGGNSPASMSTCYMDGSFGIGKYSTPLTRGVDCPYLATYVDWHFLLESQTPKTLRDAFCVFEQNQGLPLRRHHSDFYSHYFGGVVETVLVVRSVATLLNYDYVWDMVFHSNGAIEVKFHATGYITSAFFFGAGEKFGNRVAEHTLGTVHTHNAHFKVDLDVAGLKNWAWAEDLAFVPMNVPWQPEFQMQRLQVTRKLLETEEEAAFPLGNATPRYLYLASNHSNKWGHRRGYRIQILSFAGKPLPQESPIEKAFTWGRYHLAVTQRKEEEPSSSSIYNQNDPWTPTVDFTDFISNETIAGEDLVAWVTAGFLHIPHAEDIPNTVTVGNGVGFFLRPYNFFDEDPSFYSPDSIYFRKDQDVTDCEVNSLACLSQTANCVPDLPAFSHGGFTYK
Details: reports in the literature; cited from earlier work

In the case of `NC/C(=C/Cl)c1ccccc1` [MDL72274], the “Selectivity for rat SSAO/VAP-1 compared to MAO-A and MAO-B” value is listed as “selectively inhibiting rat SSAO/VAP-1”.
